Data as given in paper PMC5750218, “Protein-inspired antibiotics active against vancomycin- and daptomycin-resistant bacteria” (Nature Communications, 2018).
Converted amounts (≈) assume the structure as drawn.

Experiments:
[1] = tested on: Methicillin-resistant S. aureus ATCC 43300; experiment: microbe, parasite or virus in culture; details: ATCC 43300, 24 h
Method: (§1) Antimicrobial activity of compounds was tested against a number of bacterial strains by broth microdilution (BMD) assay with MIC determination, including S. aureus (MSSA ATCC® 29213™, MRSA ATCC® 43300™, VISA NARSA NRS1, VISA NARSA NRS4), Streptococcus pneumoniae (MDR ATCC® 700677™) and Enterococcus faecium (MDR VanA ATCC® 51559™). ATCC strains were sourced from the American Type Culture Collection and NRS strains from NARSA (Network on Antimicrobial Resistance in S. aureus) via BEI Resources (www.beiresources.org). All compounds were prepared to 160 µg mL^−1 solution in water from a stock solution of 1 mM concentration.
[…] […] Standards ranged from 64 to 0.03 µg mL^−1 and compounds from 8 to 0.003 µg mL^−1 with final assay volumes of 100 µL per well. Gram-positive bacteria were cultured in Mueller Hinton broth (MHB) (Bactolaboratories, Cat. no. 211443) at 37 °C overnight. A sample of each culture was then diluted 40-fold in fresh MHB and incubated at 37 °C for 2–3 h. […] All the plates were covered and incubated at 37 °C for 24 h. MICs were the lowest concentration showing no visible growth.

[2] = tested on: Multi-drug-resistant S. pneumoniae ATCC 700677; experiment: microbe, parasite or virus in culture; details: ATCC 700677
Method: as §1
(§2) The compounds, along with standard antibiotics were serially diluted twofold across the wells of 96-well non-binding surface (NBS) polystyrene plates (Corning 3641). […] Standards ranged from 64 to 0.03 µg mL^−1 and compounds from 8 to 0.003 µg mL^−1 with final assay volumes of 100 µL per well. Gram-positive bacteria were cultured in Mueller Hinton broth (MHB) (Bactolaboratories, Cat. no. 211443) at 37 °C overnight. A sample of each culture was then diluted 40-fold in fresh MHB and incubated at 37 °C for 2–3 h. […] All the plates were covered and incubated at 37 °C for 24 h. MICs were the lowest concentration showing no visible growth.

[3] = tested on: Vancomycin-intermediate S. aureus NRS1; experiment: microbe, parasite or virus in culture; details: Vancomycin-intermediate NRS1
Method: as §1, §2

[4] = tested on: Vancomycin-resistant (VanA) Enterococcus faecium ATCC 51559; experiment: microbe, parasite or virus in culture; details: ATCC 51559
Method: as §1, §2

[5] = Cytotoxicity MTT assay; format: cell-based, human; details: human
Method: Compound cytotoxicity was evaluated against HepG2 (ATCC-®HB-8065 liver hepatoceullular carcinoma) and HEK293 (ATCC®CRL-1573, embryonic kidney) human cell lines using standard (3-(4,5-dimethylthiazol-2-yl)−2,5-diphenyltetrazolium bromide (MTT) assay protocol with slight changes. In brief, HepG2 and HEK293 cells (assessed annually for mycoplasma contamination) were seeded as 1.5 × 10^4 cells per well in a clear 96-well tissue culture treated plate in a final volume of 100 μL in Dulbecco’s Modified Eagle Medium (DMEM)(GIBCO-Invitrogen #11995-073), in which 1% of FBS was added. Cells were incubated for 24 h at 37 °C, 5% CO2 to allow cells to attach to the plates. […] After the incubation, 0.4 mg mL^−1 MTT (3-(4,5-dimethylthiazol-2-yl)−2,5-diphenyltetrazolium bromide) (Invitrogen) was added to each well. The plates were then incubated for 2 h at 37 °C, 5% CO2. The media was removed, and purple formazan crystals were resuspended in 60 μL of DMSO. The absorbance was read at 570 nm using a Polarstar Omega plate reader. The data was then analysed by Prism software. Results are presented as the average percentage of control ± S.D. for each set of duplicate wells using the following equation: percent viability = (ABSTEST – ABSPOSITIVE CTRL / ABSUNTREATED –ABS POSITIVE CTRL)×100.

[6] = Cytotoxicity MTT assay; format: cell-based, human; details: human; remark: listed apart in the source
Method: Compound cytotoxicity was evaluated against HepG2 (ATCC-®HB-8065 liver hepatoceullular carcinoma) and HEK293 (ATCC®CRL-1573, embryonic kidney) human cell lines using standard (3-(4,5-dimethylthiazol-2-yl)−2,5-diphenyltetrazolium bromide (MTT) assay protocol with slight changes. In brief, HepG2 and HEK293 cells (assessed annually for mycoplasma contamination) were seeded as 1.5 × 10^4 cells per well in a clear 96-well tissue culture treated plate in a final volume of 100 μL in Dulbecco’s Modified Eagle Medium (DMEM)(GIBCO-Invitrogen #11995-073), in which 1% of FBS was added. Cells were incubated for 24 h at 37 °C, 5% CO2 to allow cells to attach to the plates. Compounds prepared at 100 µM to 0.046 µM in threefold dilutions were added into each well and incubated for 24 h at 37 °C, 5% CO2. After the incubation, 0.4 mg mL^−1 MTT (3-(4,5-dimethylthiazol-2-yl)−2,5-diphenyltetrazolium bromide) (Invitrogen) was added to each well. The plates were then incubated for 2 h at 37 °C, 5% CO2. The media was removed, and purple formazan crystals were resuspended in 60 μL of DMSO. The absorbance was read at 570 nm using a Polarstar Omega plate reader. The data was then analysed by Prism software. Results are presented as the average percentage of control ± S.D. for each set of duplicate wells using the following equation: percent viability = (ABSTEST – ABSPOSITIVE CTRL / ABSUNTREATED –ABS POSITIVE CTRL)×100.

[7] = tested on: Vancomycin-resistant S. aureus NARSA VRS4; experiment: microbe, parasite or virus in culture; format: cell-based, Staphylococcus aureus; details: Vancomycin-resistant NARSA VRS4

| SMILES | MIC MRSA [1] | MIC MDR S.P. [2] | MIC VISA [3] | MIC VRE [4] | MIC VRSA [7] | CC50 at 24 h [5] | CC50 at 24 h [6] |
| --- | --- | --- | --- | --- | --- | --- | --- |
| CCCCCCCCCCCCCCCC(=O)NCC(=O)N[C@@H](CO)C(=O)N[C@@H](CO)C(=O)N[C@@H](CCCCN)C(=O)N[C@@H](CO)C(=O)N1CCC[C@H]1C(=O)N[C@@H](CO)C(=O)N[C@@H](CCCCN)C(=O)N[C@@H](CCCCN)C(=O)N[C@@H](CCCCN)C(=O)N[C@@H](CCCCN)C(=O)N[C@@H](CCCCN)C(=O)N[C@@H](CCCCN)C(=O)N1CCC[C@H]1C(=O)NCC(=O)N[C@@H](CC(=O)O)C(=O)N[C@@H](CSSCCNC(=O)[C@H]1NC(=O)[C@H]2NC(=O)[C@H](NC(=O)[C@@H]3NC(=O)[C@H](CC(N)=O)NC(=O)[C@H](NC(=O)[C@@H](CC(C)C)NC)[C@H](O)c4ccc(c(Cl)c4)Oc4cc3cc(c4O[C@@H]3O[C@H](CO)[C@@H](O)[C@H](O)[C@H]3O[C@H]3C[C@](C)(N)[C@H](O)[C@H](C)O3)Oc3ccc(cc3Cl)[C@H]2O)c2ccc(O)c(c2)-c2c(O)cc(O)cc21)C(N)=O [Compound 9] | 0.06 µg/mL (≈ 0.017 µM) | 0.125 µg/mL (≈ 0.0354 µM) | 2 µg/mL (≈ 0.566 µM) | 8 µg/mL (≈ 2.26 µM) |  | 4 µM | 7 µM |
| CCCCCCCCCC(=O)N[C@@H](CCCCN)C(=O)N[C@@H](CCCCN)C(=O)N[C@@H](CCCCN)C(=O)N[C@@H](CCCCNC(=O)[C@H]1NC(=O)[C@H]2NC(=O)[C@H](NC(=O)[C@@H]3NC(=O)[C@H](CC(N)=O)NC(=O)[C@H](NC(=O)[C@@H](CC(C)C)NC)[C@H](O)c4ccc(c(Cl)c4)Oc4cc3cc(c4O[C@@H]3O[C@H](CO)[C@@H](O)[C@H](O)[C@H]3O[C@H]3C[C@](C)(N)[C@H](O)[C@H](C)O3)Oc3ccc(cc3Cl)[C@H]2O)c2ccc(O)c(c2)-c2c(O)cc(O)cc21)C(=O)O [Compound 36, nC9CO-KKK-K(Vancomycin)-OH] | 0.06 µg/mL (≈ 0.0284 µM) | 0.06 µg/mL (≈ 0.0284 µM) | 0.75 µg/mL (≈ 0.354 µM) | 8 µg/mL (≈ 3.78 µM) | 0.75 µg/mL (≈ 0.354 µM) |  |  |
| CCCCCCCCCCCC(=O)NCC(=O)N[C@@H](CO)C(=O)N[C@@H](CO)C(=O)N[C@@H](CCCCN)C(=O)N[C@@H](CO)C(=O)N1CCC[C@H]1C(=O)N[C@@H](CO)C(=O)N[C@@H](CCCCN)C(=O)N[C@@H](CCCCN)C(=O)N[C@@H](CCCCN)C(=O)N[C@@H](CCCCN)C(=O)N[C@@H](CCCCN)C(=O)N[C@@H](CCCCN)C(=O)N1CCC[C@H]1C(=O)NCC(=O)N[C@@H](CC(=O)O)C(=O)N[C@@H](CSSCCNC(=O)[C@H]1NC(=O)[C@H]2NC(=O)[C@H](NC(=O)[C@@H]3NC(=O)[C@H](CC(N)=O)NC(=O)[C@H](NC(=O)[C@@H](CC(C)C)NC)[C@H](O)c4ccc(c(Cl)c4)Oc4cc3cc(c4O[C@@H]3O[C@H](CO)[C@@H](O)[C@H](O)[C@H]3O[C@H]3C[C@](C)(N)[C@H](O)[C@H](C)O3)Oc3ccc(cc3Cl)[C@H]2O)c2ccc(O)c(c2)-c2c(O)cc(O)cc21)C(N)=O [Compound 7] | 0.09 µg/mL (≈ 0.0259 µM) | 0.06 µg/mL (≈ 0.0173 µM) | 1 µg/mL (≈ 0.288 µM) | 0.02 µg/mL (≈ 0.00575 µM) |  | 65 µM | 89 µM |

Continued, in another order:

| MIC MRSA [1] | MIC MDR S.P. [2] | MIC VISA [3] | MIC VRE [4] | MIC VRSA [7] | SMILES | CC50 at 24 h [5] | CC50 at 24 h [6] |
| --- | --- | --- | --- | --- | --- | --- | --- |
| 0.16 µg/mL (≈ 0.0513 µM) | 0.09 µg/mL (≈ 0.0288 µM) | 0.5 µg/mL (≈ 0.16 µM) | 0.125 µg/mL (≈ 0.04 µM) |  | CCCCCCCCCCCCCC(=O)NCC(=O)N[C@@H](CO)C(=O)N[C@@H](CO)C(=O)N[C@@H](CCCCN)C(=O)N[C@@H](CO)C(=O)N1CCC[C@H]1C(=O)N[C@@H](CO)C(=O)N[C@@H](CCCCN)C(=O)N[C@@H](CCCCN)C(=O)N[C@@H](CCCCN)C(=O)N1CCC[C@H]1C(=O)NCC(=O)N[C@@H](CC(=O)O)C(=O)N[C@@H](CSSCCNC(=O)[C@H]1NC(=O)[C@H]2NC(=O)[C@H](NC(=O)[C@@H]3NC(=O)[C@H](CC(N)=O)NC(=O)[C@H](NC(=O)[C@@H](CC(C)C)NC)[C@H](O)c4ccc(c(Cl)c4)Oc4cc3cc(c4O[C@@H]3O[C@H](CO)[C@@H](O)[C@H](O)[C@H]3O[C@H]3C[C@](C)(N)[C@H](O)[C@H](C)O3)Oc3ccc(cc3Cl)[C@H]2O)c2ccc(O)c(c2)-c2c(O)cc(O)cc21)C(N)=O [Compound 11] | 9 µM | 18 µM |
| 0.09 µg/mL (≈ 0.0305 µM) | 0.06 µg/mL (≈ 0.0203 µM) | 0.5 µg/mL (≈ 0.17 µM) | 0.007 µg/mL (≈ 0.00237 µM) |  | CCCCCCCCCCCCCC(=O)NCC(=O)N[C@@H](CO)C(=O)N[C@@H](CO)C(=O)N[C@@H](CCCCN)C(=O)N[C@@H](CO)C(=O)N1CCC[C@H]1C(=O)N[C@@H](CO)C(=O)N[C@@H](CCCCN)C(=O)N[C@@H](CCCCN)C(=O)N[C@@H](CCCCN)C(=O)N1CCC[C@H]1C(=O)N[C@@H](CSSCCNC(=O)[C@H]1NC(=O)[C@H]2NC(=O)[C@H](NC(=O)[C@@H]3NC(=O)[C@H](CC(N)=O)NC(=O)[C@H](NC(=O)[C@@H](CC(C)C)NC)[C@H](O)c4ccc(c(Cl)c4)Oc4cc3cc(c4O[C@@H]3O[C@H](CO)[C@@H](O)[C@H](O)[C@H]3O[C@H]3C[C@](C)(N)[C@H](O)[C@H](C)O3)Oc3ccc(cc3Cl)[C@H]2O)c2ccc(O)c(c2)-c2c(O)cc(O)cc21)C(N)=O [Compound 12] | 26 µM | 41 µM |
| 2.5 µg/mL (≈ 0.725 µM) | 3 µg/mL (≈ 0.87 µM) | >8 µg/mL | 1.25 µg/mL (≈ 0.362 µM) |  | CCCCCCCCCC(=O)NCC(=O)N[C@@H](CO)C(=O)N[C@@H](CO)C(=O)N[C@@H](CCCCN)C(=O)N[C@@H](CO)C(=O)N1CCC[C@H]1C(=O)N[C@@H](CO)C(=O)N[C@@H](CCCCN)C(=O)N[C@@H](CCCCN)C(=O)N[C@@H](CCCCN)C(=O)N[C@@H](CCCCN)C(=O)N[C@@H](CCCCN)C(=O)N[C@@H](CCCCN)C(=O)N1CCC[C@H]1C(=O)NCC(=O)N[C@@H](CC(=O)O)C(=O)N[C@@H](CSSCCNC(=O)[C@H]1NC(=O)[C@H]2NC(=O)[C@H](NC(=O)[C@@H]3NC(=O)[C@H](CC(N)=O)NC(=O)[C@H](NC(=O)[C@@H](CC(C)C)NC)[C@H](O)c4ccc(c(Cl)c4)Oc4cc3cc(c4O[C@@H]3O[C@H](CO)[C@@H](O)[C@H](O)[C@H]3O[C@H]3C[C@](C)(N)[C@H](O)[C@H](C)O3)Oc3ccc(cc3Cl)[C@H]2O)c2ccc(O)c(c2)-c2c(O)cc(O)cc21)C(N)=O [Compound 6] | > 100 µM | > 100 µM |
